Results taken from patent US12616750B2, “Combination therapy utilizing DNA alkylating agents and ATR inhibitors” (Merck Patent GmbH, priority 2018, dated 2026).
Like-named read-outs stand apart in the source and are kept apart here.

Tests used:
[1] = test system: MDA-MB-468 cells; assay: MNED curve-shift assay; type: cell-based
Description: (§1) Therefore a curve-shift assay system was established. In a first step, a dose-response curve (DRC) is obtained by treating a certain cell line with an inhibitor. The maximum non-efficacious dose (MNED) can be derived from this DRC. MNED is the highest dose, that can be added to a certain cell line without affecting the viability. The activity of the ADC is confirmed in a separate experiment. Finally, a combination experiment can be conducted. Therefore, the ADC and ADC plus inhibitor at MNED are added to the cells. The inhibitor is tested in parallel at MNED as a control. Due to the application of inhibitor at MNED, no reduction in cell viability caused by the inhibitor is expected. Three outcomes are possible: 1) The combination of ADC plus inhibitor is equipotent as the ADC only. […] Such a result would be interpreted as depotentiation. […] In this case, the potency of the ADC is potentiated.
(§2) Potentiation effects are expressed as dose-reduction indices (DRI), which can be calculated by dividing the IC50-value of ADC by the IC50-value of ADC plus inhibitor according to eq. 1
(§3) Curve-shift assays were conducted as follows: The cell number and viability was determined using ViCell™-XR (Beckman Coulter) and seeded in opague 96-well plate (10k viable cells/well). After seeding, the plate was incubated (37° C., 5% C02) in a humid chamber overnight. Compounds were diluted in the appropriate medium, added to the cells and the plate was incubated (37° C., 5% CO2, 6 d) in a humid chamber. After 30 min equilibration at room temperature, CellTiter-Glo reagent (Promega) was added. After the plate was shaken (3 min, 550 rpm, rt) it was incubated (10 min, rt) and luminescence was read on a synergy 4 plate reader (BioTek). Evaluation was performed using GraphPad Prism version 6.05. Therefor luminescence values were normalized to luminescence values of non-treated cells and dose-response was fitted with 4-point logistic fit.
(§4) The determination of dose-reduction indices (DRI) in a maximum non-efficacious dose (MNED) curve-shift assay is a 3-step process as depicted exemplarily in FIG. 13. The cytotoxicity of the ADC is confirmed in a cell viability assay in an initial step. […] In the second step. the MNED of the ATRi was determined. […] In order to obtain a full […] for the combination, the starting concentration of the ADC was lowered compared to the experiment in step 1.

[2] = test system: Calu-3 cells; assay: MNED curve-shift assay; type: cell-based
Description: as §1, §2, §3, §4

[3] = test system: SK-BR-3 cells; assay: MNED curve-shift assay; type: cell-based
Description: as §1, §2, §3, §4

[4] = test system: JIMT-1 cells; assay: MNED curve-shift assay; type: cell-based
Description: as §1, §2, §3, §4

[5] = test system: SK-OV-3 cells; assay: MNED curve-shift assay; type: cell-based
Description: as §1, §2, §3, §4

[6] = test system: BT-474 cells; assay: MNED curve-shift assay; type: cell-based
Description: as §1, §2, §3, §4

[7] = test system: HCC-1954 cells; assay: MNED curve-shift assay; type: cell-based; conditions: HCC-1954
Description: as §1, §2, §3, §4

[8] = test system: MDA-MB-453 cells; assay: MNED curve-shift assay; type: cell-based
Description: as §1, §2, §3, §4

[9] = test system: HCC-1954 cells; assay: Cytotoxicity (cell viability, CellTiter-Glo, 6 d); type: cell-based; conditions: Homo sapiens, HCC1954, HCC-1954
Protocol: (§5) Dose-matrix combination assays were performed as described above, but performed in opague 384-well plates (2k viable cells/well). Compounds were added using Tecan D300e liquid. Protein solutions were supplemented with 0.3% Tween-20 (final) and diluted to 1 μM. All wells were normalized to the maximum amount of DMSO (maximum 0.4%) or Tween-20 added. […] Luminescence values were normalized to luminescence of non-treated cells and dose-response was fitted using Smart Fit. Synergy scores were calculated using LOEWE synergy model.
After 6 d of treatment, CellTiter-Glo luminescent assay was performed and the luminescence was read on Envision Reader. The results were analyzed using GeneData Screener as described before.

[10] = test system: HCC-1954 cells; assay: Dose-matrix combination assay (synergy score, Loewe model); type: cell-based
Protocol: as §5
(§6) The screening of synergistic drug combinations can be accomplished by performing a dose-matrix assay. Therefore, two drugs are serial diluted and mixed at every dose level, yielding a dose-matrix. The drug combination can be additive if the effects of the combination are identical to the added effects of the single agents. However, the effects of the combination might also be stronger than the activity of the single agents. This scenario is termed synergy, whereas weaker combination effects compared to the single agents are termed antagonism. A dose-matrix assay is depicted schematically in FIG. 2 which illustrates the outcomes of a dose-matrix assay: additivity, antagonism and synergy.
(§7) The screening was conducted by serial diluting the duocarmycin derivative DUBA (10) and the DDR inhibitors. […] DUBA was combined in a dose-matrix assay with hycanthone. The cell viability was measured after 6 d of treatment using the CellTiter-Glo assay kit. The signals of the cell viability assay were normalized to untreated cells and fitted. […] By subtracting the modeled data from the fitted data, an excess matrix was generated. The excess matrix can be considered as a visualization of the differences between model and actual data which also highlights spots of either high synergy or antagonism. The quantification of the combination effects, however, was performed by calculating synergy scores. […] Besides synergy score, the potency of the drugs in monotherapy was obtained from these experiments. […] The potency was obtained from this dose-response curve.
(§8) The scattering of S was determined in a sham control experiment to define a cutoff for classifying a combination as truly synergistic or antagonistic. Thus seven different compounds were combined with itself on four different cell lines and the three-σ confidence interval was calculated around the mean of the measurement. […] For the sake of convenience, the cutoff was set to a value of ±1.
(§9) Synergy scores (S) were obtained from the combination experiments that indicated additivity […] if model and actual response were equal. […] The magnitude of the score determined the extent of the combination effects.

[11] = test system: A549 cells; assay: as above; type: cell-based; conditions: combination with AZD6738; A549 (EGFR-positive), 6 d
Protocol: (§10) Dose-matrix combination assays were performed as described above, but performed in opague 384-well plates (2k viable cells/well). Compounds were added using Tecan D300e liquid. Protein solutions were supplemented with 0.3% Tween-20 (final) and diluted to 1 μM. All wells were normalized to the maximum amount of DMSO (maximum 0.4%) or Tween-20 added. Read out of luminescence was performed on Envision 2104 Multilabel Reader (Perkin Elmer) and data were evaluated using Genedata Screener® version 14.0.6-Standard (Genedata AG). Luminescence values were normalized to luminescence of non-treated cells and dose-response was fitted using Smart Fit. Synergy scores were calculated using LOEWE synergy model.
as §6

[12] = test system: MDA-MB-468 cells; assay: Cytotoxicity (cell viability, CellTiter-Glo, 6 d); type: cell-based; conditions: Homo sapiens, MDA-MB-468; read-out: IC50
[13] = test system: MCF7 cells; assay: Cytotoxicity (cell viability); type: cell-based; conditions: Homo sapiens; MCF7 (EGFR −, MET −), Table 10
Protocol: as §3, §10

[14] = test system: MDA-MB-468 cells; assay: Dose-matrix combination assay (synergy score, Loewe model); type: cell-based; conditions: combination with DUBA; MDA-MB-468, 6 d; S ± SD; cutoff ±1
Protocol: as §5, §6, §7, §8, §9

[15] = target: T1, NEK1 (Homo sapiens, UniProt Q96PY6); conditions: cited from earlier work
T1 sequence (Q96PY6 1-1258): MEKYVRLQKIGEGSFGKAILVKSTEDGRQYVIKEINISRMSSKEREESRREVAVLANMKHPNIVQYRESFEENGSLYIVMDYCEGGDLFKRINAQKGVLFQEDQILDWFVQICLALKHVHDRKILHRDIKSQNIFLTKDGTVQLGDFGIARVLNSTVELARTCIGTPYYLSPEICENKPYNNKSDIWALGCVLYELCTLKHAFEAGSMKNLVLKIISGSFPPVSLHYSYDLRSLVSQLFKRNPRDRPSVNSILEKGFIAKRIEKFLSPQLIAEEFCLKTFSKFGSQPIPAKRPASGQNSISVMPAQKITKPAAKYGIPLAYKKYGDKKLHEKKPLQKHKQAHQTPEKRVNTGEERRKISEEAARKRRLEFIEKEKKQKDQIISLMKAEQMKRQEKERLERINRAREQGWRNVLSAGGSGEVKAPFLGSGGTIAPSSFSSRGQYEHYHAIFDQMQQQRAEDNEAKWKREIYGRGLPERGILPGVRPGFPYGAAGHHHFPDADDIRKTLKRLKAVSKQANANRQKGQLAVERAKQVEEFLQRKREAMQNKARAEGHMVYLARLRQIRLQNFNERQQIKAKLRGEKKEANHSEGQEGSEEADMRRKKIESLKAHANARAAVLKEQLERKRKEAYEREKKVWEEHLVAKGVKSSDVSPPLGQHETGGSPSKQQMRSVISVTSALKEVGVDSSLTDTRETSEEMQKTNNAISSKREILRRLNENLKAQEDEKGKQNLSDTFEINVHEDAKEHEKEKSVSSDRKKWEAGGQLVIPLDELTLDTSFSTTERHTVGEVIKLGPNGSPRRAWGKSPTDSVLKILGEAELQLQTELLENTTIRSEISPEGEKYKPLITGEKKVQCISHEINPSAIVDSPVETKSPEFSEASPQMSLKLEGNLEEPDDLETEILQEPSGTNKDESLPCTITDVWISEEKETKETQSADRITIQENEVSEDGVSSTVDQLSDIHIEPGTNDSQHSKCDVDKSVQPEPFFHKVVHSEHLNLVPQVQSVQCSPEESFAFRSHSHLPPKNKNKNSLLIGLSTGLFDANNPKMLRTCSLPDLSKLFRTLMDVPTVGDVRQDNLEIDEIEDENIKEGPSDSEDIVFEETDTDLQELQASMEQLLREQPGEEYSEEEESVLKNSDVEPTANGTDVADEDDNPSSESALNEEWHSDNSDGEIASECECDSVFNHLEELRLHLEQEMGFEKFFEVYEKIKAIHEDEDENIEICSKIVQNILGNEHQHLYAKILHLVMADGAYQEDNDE

[16] = combination with DUBA, HCC-1954, 6 d, S ± SD, cutoff ±1

Structure (SMILES) | MNED (maximum non-efficacious dose) [1] [nM] | MNED (maximum non-efficacious dose) [2] [nM] | MNED (maximum non-efficacious dose) [3] [nM] | MNED (maximum non-efficacious dose) [4] [nM] | MNED (maximum non-efficacious dose) [5] [nM] | MNED (maximum non-efficacious dose) [6] [nM] | MNED (maximum non-efficacious dose) [7] [nM] | MNED (maximum non-efficacious dose) [8] [nM] | IC50 ([9]; ATRi alone, mean ± SD, read-out: Cytotoxicity IC50) [nM] | Synergy score S ([10]; combination with ADC αHER2-2, HCC-1954) | Synergy score S [10, 16] | Synergy score S [11] | IC50 ([9]; duocarmycin variant alone, mean ± SD or mean (individual values), read-out: IC50) [nM] | IC50 [12] [nM] | Synergy score S ([10]; combination with AZD6738, HCC-1954, 6 d) | Synergy score S ([10]; combination with AZD6738, HCC-1954, 6 d, listed as DSA (13)) | IC50 [13] [nM] | Synergy score S [14] | potency of NEK1 inhibition [15] [nM]
CNCc1ccc(-c2cc(-c3nc(-c4ccc(S(=O)(=O)C(C)C)cc4)cnc3N)on2)cc1 [VE-822] | 300 | 80 | 125 | 80 | 125 | 1000 | 250 | 40 | 900 ± 400 | 5.7±0.3 | 5.3±0.6 | – | – | – | – | – | – | – | –
COC(=O)c1cc2c3c(cc(O)c2[nH]1)N(C(=O)c1cc2cc(OC)c(OC)c(OC)c2[nH]1)C[C@H]3CCl [compound 13] | – | – | – | – | – | – | – | – | – | – | – | additive effects | 0.3 ± 0.1 | 0.14 ± 0.07 | 4.1 ± 0.4 | 4.1±0.4 | 0.06 ± 0.02 | – | –
COc1cc(-c2cnc(N)c(N3CC[C@@H](C(=O)O)[C@@H](C)[C@H]3C)n2)cc(OC)c1OC [Cmpd31] | – | – | – | – | – | – | – | – | – | – | 0.3±0.1 | – | – | – | – | – | – | 0.4±0.2 | 170
